Measured values taken from the supplement of paper PMC10307832.

Experiments:
Test in all cases: relative viability (nuclei count vs DMSO), 5 days (fraction); higher = more cells survive
Wnt-C59 + Tozasertib = compound: CC1=NC=CC(=C1)C2=CC=C(C=C2)CC(=O)NC3=CC=C(C=C3)C4=CN=CC=C4 [Wnt-C59] + Cc1cc(Nc2cc(N3CCN(C)CC3)nc(Sc3ccc(NC(=O)C4CC4)cc3)n2)n[nH]1 [Tozasertib] (partner 0.1 µM)
Summary of the method: (§1)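 Cells from lung cancer lines were seeded into 1536-well plates and, one day later, dosed by pin tool. Treatments were either a single drug or a fixed dose of an anchor drug with five library-drug doses (not always all listed) in √10 steps. After 5 days, nuclei were stained in a one-step fixation (final 0.05% Triton X-100, 1% formaldehyde, 1 ug/ml Hoechst) and counted on 4× images, and relative viability is the treated-to-vehicle nuclei ratio, as the median of duplicate plates.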

Wnt-C59 + Dasatinib = compound: CC1=NC=CC(=C1)C2=CC=C(C=C2)CC(=O)NC3=CC=C(C=C3)C4=CN=CC=C4 [Wnt-C59] + Cc1nc(Nc2ncc(C(=O)Nc3c(C)cccc3Cl)s2)cc(N2CCN(CCO)CC2)n1 [Dasatinib] (partner 0.075 µM)
Summary of the method: as §1

Lapatinib + Crizotinib = compound: CS(=O)(=O)CCNCc1ccc(-c2ccc3ncnc(Nc4ccc(OCc5cccc(F)c5)c(Cl)c4)c3c2)o1 [Lapatinib] + C[C@@H](Oc1cc(-c2cnn(C3CCNCC3)c2)cnc1N)c1c(Cl)ccc(F)c1Cl [Crizotinib] (partner 1 µM)
Summary of the method: as §1

Lapatinib + Vorinostat = compound: CS(=O)(=O)CCNCc1ccc(-c2ccc3ncnc(Nc4ccc(OCc5cccc(F)c5)c(Cl)c4)c3c2)o1 [Lapatinib] + O=C(CCCCCCC(=O)Nc1ccccc1)NO [Vorinostat] (partner 1 µM)
Summary of the method: as §1

| Cell Line | relative viability (Wnt-C59 + Tozasertib; first compound 0.001 µM) | relative viability (Wnt-C59 + Tozasertib; first compound 0.01 µM) | relative viability (Wnt-C59 + Tozasertib; first compound 0.03162 µM) | relative viability (Wnt-C59 + Tozasertib; first compound 0.1 µM) | relative viability (Wnt-C59 + Dasatinib; first compound 0.001 µM) | relative viability (Wnt-C59 + Dasatinib; first compound 0.01 µM) | relative viability (Wnt-C59 + Dasatinib; first compound 0.03162 µM) | relative viability (Wnt-C59 + Dasatinib; first compound 0.1 µM) | relative viability (Lapatinib + Crizotinib; first compound 0.06325 µM) | relative viability (Lapatinib + Crizotinib; first compound 0.2 µM) | relative viability (Lapatinib + Crizotinib; first compound 0.6325 µM) | relative viability (Lapatinib + Crizotinib; first compound 2 µM) | relative viability (Lapatinib + Vorinostat; first compound 0.06325 µM) | relative viability (Lapatinib + Vorinostat; first compound 0.2 µM) | relative viability (Lapatinib + Vorinostat; first compound 0.6325 µM) | relative viability (Lapatinib + Vorinostat; first compound 2 µM) | relative viability (Lapatinib + Crizotinib; first compound 0.02 µM) | relative viability (Lapatinib + Vorinostat; first compound 0.02 µM) |
| --- | --- | --- | --- | --- | --- | --- | --- | --- | --- | --- | --- | --- | --- | --- | --- | --- | --- | --- |
| HOP-62 | 0.349 | 0.363 | 0.394 | 0.314 | 0.696 | 0.66 | 0.716 | 0.697 | 0.892 | 0.991 | 0.934 | 0.948 | 0.631 | 0.639 | 0.678 | 0.655 | – | – |
| IA-LM | – | – | – | – | – | – | – | – | 0.98 | 0.713 | 0.881 | 0.644 | 0.795 | – | 0.916 | 0.885 | 0.823 | – |
| LC-2-ad | 0.403 | 0.45 | 0.478 | 0.434 | 0.696 | 0.73 | 0.53 | 0.559 | 0.487 | 0.473 | 0.436 | 0.375 | 0.632 | 0.763 | 0.623 | 0.672 | – | – |
| LCLC-97TM1 | 0.252 | 0.205 | 0.226 | 0.182 | 0.764 | 0.75 | 0.772 | 0.889 | – | 0.593 | 0.472 | 0.357 | 0.316 | 0.953 | 0.681 | 0.687 | – | – |
| LCLC-103H | 0.516 | 0.487 | 0.475 | 0.474 | 0.509 | 0.471 | 0.493 | 0.516 | 0.93 | 0.934 | 0.963 | 0.931 | 0.65 | 0.768 | 0.779 | 0.692 | – | 0.582 |
| LK-2 | 0.165 | 0.173 | 0.189 | 0.18 | 0.379 | 0.372 | 0.268 | 0.292 | – | 0.253 | 0.217 | 0.245 | – | 0.222 | 0.325 | 0.357 | – | 0.173 |
| LOU-NH91 | 0.775 | 0.597 | 0.695 | 0.682 | 0.6 | 0.529 | 0.523 | 0.57 | 0.626 | 0.599 | 0.547 | 0.534 | 0.675 | 0.856 | 0.824 | 0.769 | 0.697 | 0.398 |
| LU99A | 0.256 | 0.276 | 0.272 | 0.262 | 0.55 | 0.506 | 0.501 | 0.538 | 0.464 | 0.53 | 0.582 | 0.597 | 0.358 | 0.506 | 0.426 | 0.469 | 0.591 | 0.49 |
| LXF-289 | 0.22 | 0.221 | 0.182 | 0.194 | 0.251 | 0.25 | 0.231 | 0.221 | 0.85 | 0.805 | 0.779 | 0.743 | 0.709 | 0.83 | 0.664 | 0.673 | 0.819 | 0.474 |
| NCI-H23 | 0.377 | 0.33 | 0.446 | 0.333 | 0.885 | 0.734 | 0.829 | 0.698 | – | 0.504 | 0.396 | 0.412 | – | 0.624 | 0.746 | 0.555 | – | – |
| NCI-H322M | 0.444 | 0.432 | 0.454 | 0.427 | 0.266 | 0.26 | 0.216 | 0.228 | 0.649 | 0.912 | 0.857 | 0.735 | 0.749 | 0.786 | 0.92 | 0.683 | 0.823 | 0.947 |
| NCI-H358 | 0.108 | 0.0976 | 0.108 | 0.0887 | 0.177 | 0.154 | 0.145 | 0.152 | – | 0.523 | 0.363 | 0.26 | 0.418 | 0.511 | 0.362 | 0.215 | 0.577 | 0.596 |
| NCI-H441 | 0.691 | 0.646 | 0.691 | 0.566 | 0.56 | 0.637 | 0.615 | 0.298 | 0.861 | 0.803 | 0.689 | 0.721 | – | 0.84 | 0.757 | 0.887 | 0.681 | 0.713 |
| NCI-H522 | 0.63 | 0.566 | 0.578 | 0.651 | 0.92 | 0.752 | 0.875 | 0.882 | – | – | – | – | 0.822 | 1 | 0.839 | 0.902 | – | – |
| NCI-H1299 | – | – | – | – | – | – | – | – | 1.03 | 0.893 | 0.944 | 0.916 | – | – | – | – | 0.952 | – |
| NCI-H1395 | 0.71 | 0.668 | 0.755 | 0.844 | 0.406 | 0.398 | 0.423 | 0.444 | – | – | – | – | 0.704 | 0.779 | 0.789 | 0.646 | – | – |
| NCI-H1563 | – | – | – | – | 0.456 | 0.509 | 0.475 | 0.468 | 0.874 | 0.861 | 0.789 | 0.774 | – | – | – | – | 0.881 | – |
| NCI-H1623 | 0.426 | 0.401 | 0.415 | 0.434 | 0.507 | 0.488 | 0.572 | 0.625 | – | – | – | – | – | – | – | – | – | – |
| NCI-H1648 | 0.581 | 0.611 | 0.364 | 0.524 | – | – | – | – | – | – | – | – | 0.271 | 0.389 | 0.587 | 0.287 | – | – |
| NCI-H1703 | – | – | – | – | – | – | – | – | 0.873 | 0.774 | 0.879 | 0.63 | – | – | – | – | 0.696 | – |
| NCI-H1792 | – | – | – | – | 0.753 | 0.771 | 0.992 | 0.718 | 0.987 | 0.985 | 0.946 | 0.918 | – | – | – | – | 0.92 | – |
| NCI-H1793 | 0.309 | – | 0.302 | 0.345 | 0.431 | – | 0.468 | 0.355 | – | – | – | – | 0.495 | 0.646 | 0.646 | 0.42 | – | – |
| NCI-H2342 | 0.643 | 0.416 | 0.53 | 0.624 | 0.326 | 0.326 | 0.358 | 0.337 | – | – | – | – | 0.596 | 0.625 | 0.707 | 0.693 | – | 0.562 |
| SW 900 | 0.538 | 0.502 | 0.557 | 0.589 | 0.545 | 0.708 | 0.768 | 0.624 | – | – | – | – | 0.516 | 0.476 | 0.468 | 0.408 | – | – |
